Reference: doi:10.1101/2023.10.24.563163v2, “Targeting cancer with small molecule pan-KRAS degraders” (biorxiv, 2024)
Where two headings read alike, the source gives them in different places.

Experiments:
[1] = test system: GP2d; experiment: cells; design: DUSP6 modulation; conditions: GP2d, 6 h; read-out: IC50 DUSP6
From the text: (§1) Next, we set out to test the ability of a single pan-KRAS degrading molecule, compound 4, to selectively suppress oncogenic signaling and proliferation in cancer cell lines driven by diverse KRAS mutants. To this end, we first confirmed degradation of KRAS by compound 4 in KRAS-dependent (GP2d, SW620 and NCI-H358 expressing KRAS^G12D, - G12V or -G12C, respectively) as well as in KRAS independent (A-375, HEK293) cell lines (Fig. 3A, fig. S4A). […] Both inhibition and degradation repressed the established markers of MAPK signaling pERK (fig. S4B-D) and DUSP6 (Fig. 3B, fig. S4E) in KRAS dependent cell lines. […] Neither degradation nor inhibition had appreciable antiproliferative effects in the KRAS independent cell lines A-375 and HEK293 (Fig. 3C, fig. S4F).

[2] = test system: NCI-H358; experiment: cells; design: DUSP6 modulation; conditions: Homo sapiens, NCI-H358, 6 h; read-out: IC50 DUSP6
From the text: as §1

[3] = test system: SW620; experiment: cells; design: DUSP6 modulation; conditions: Homo sapiens, SW-620, 6 h; read-out: IC50 DUSP6
From the text: as §1

[4] = target: T1, KRAS (Homo sapiens, UniProt P01116, C118S/G12V); experiment: biochemical; design: SPR binary and ternary complex binding affinity and kinetics; conditions: GDP-bound; read-out: SPR KRAS^G12V GDP KD
T1 construct: residues 1-169, C118S background; His6 tag removed, E. coli; biotinylated for SPR
T1 sequence (P01116 1-169 G12V/C118S): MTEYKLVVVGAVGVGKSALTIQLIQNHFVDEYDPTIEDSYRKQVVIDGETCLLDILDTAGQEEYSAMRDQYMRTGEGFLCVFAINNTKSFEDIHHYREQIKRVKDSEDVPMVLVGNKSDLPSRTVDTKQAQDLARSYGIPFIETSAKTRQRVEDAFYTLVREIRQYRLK
From the text: (§2) With the objective of identifying molecules that potently degrade multiple KRAS mutants we next sought to employ structure-based design using the solved ternary co-crystal structure of compound 3 to improve ternary complex stability and intracellular VHL engagement. […] Analysis of the VCB:compound 3:KRAS^G12V co-crystal structure (Fig. 1H) highlighted an opportunity to enhance interactions within the ternary complex by improving π-stacking between the exit vector amide of the VHL ligand and Tyr112. We therefore switched the amide for an isoxazole, which has been previously reported to improve VCB affinity in this position in other contexts ([22]), yielding compound 4 (Fig. 2A). A ternary complex co-crystal structure of VCB:compound 4:KRAS^G12V (PDB 8QW7) confirmed a consistent overall binding mode to that observed for compound 3 (RMSD = 0.72 Å), with compound 4 able to engage in π-stacking interaction between the isoxazole and Tyr112 of VCB as designed (Fig. 2B). […] FP, SPR and cellular target engagement studies support a minor improvement in binary VHL engagement for compound 4, with moderate cooperativity retained (fig. S2A-C, table S1). […] We then investigated the impact of these structural changes on degradation kinetics in live HiBiT-tagged GP5d cells (fig. S3A-D). […] Aiming to measure ternary complex stability, we noted that the FP assay reached the limits of quantification due to ternary KD approaching that of the assay probe (fig. S8B).

[5] = target: T2, KRAS^G12D GDP (Homo sapiens, UniProt P01116, C118S/G12D); experiment: biochemical; design: SPR binary and ternary complex binding affinity and kinetics; conditions: GDP-bound; read-out: SPR KRAS^G12D GDP KD
T2 construct: residues 1-169, C118S background
T2 sequence (P01116 whole entry G12D/C118S, the tested form may be a part): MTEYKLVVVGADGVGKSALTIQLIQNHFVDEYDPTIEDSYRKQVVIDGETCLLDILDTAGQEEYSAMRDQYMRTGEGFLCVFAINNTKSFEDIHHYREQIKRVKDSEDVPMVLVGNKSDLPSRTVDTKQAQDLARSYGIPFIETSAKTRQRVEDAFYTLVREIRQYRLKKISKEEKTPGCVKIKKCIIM
From the text: as §2

[6] = target: T3, VHL:EloC:EloB (VCB) complex (Homo sapiens, UniProt P40337); experiment: biochemical; design: SPR binary and ternary complex binding affinity and kinetics; conditions: SPR, binary
T3 construct: VHL 54-213 (His6 tag removed by TEV), EloC 17-112, EloB 1-104 co-expressed in E. coli; heterotrimer; with Elongin-C; Elongin-B
T3 sequence (Q15369 17-112): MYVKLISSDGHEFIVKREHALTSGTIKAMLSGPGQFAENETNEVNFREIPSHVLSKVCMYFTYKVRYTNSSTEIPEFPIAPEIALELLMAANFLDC
T3 sequence (Q15370 1-104, further chain): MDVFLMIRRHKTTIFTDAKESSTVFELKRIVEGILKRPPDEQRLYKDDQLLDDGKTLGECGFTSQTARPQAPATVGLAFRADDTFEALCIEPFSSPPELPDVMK
T3 sequence (P40337 54-213): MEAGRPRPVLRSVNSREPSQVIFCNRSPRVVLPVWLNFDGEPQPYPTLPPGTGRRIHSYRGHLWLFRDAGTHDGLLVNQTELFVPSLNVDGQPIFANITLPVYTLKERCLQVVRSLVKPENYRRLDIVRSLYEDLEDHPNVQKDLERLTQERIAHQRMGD
From the text: as §2

[7] = target: T4, HiBiT-KRAS^G12D (Homo sapiens, UniProt P01116, G12D); design: HiBiT-KRAS degradation, split nanoluciferase lytic detection; conditions: degrader
T4 construct: HiBiT-tagged
T4 sequence (P01116 whole entry G12D): as the sequence (P01116 whole entry G12D/C118S, the tested form may be a part) above, with S118C counted along it
Procedure: This formula was derived from the Growth Inhibition (GI) calculation used in the National Cancer Institute’s NCI-60 high-throughput screen. KRAS Degradation Assays via Detection of Split Nanoluciferase (HiBiT) To assess PROTAC-mediated degradation of HiBiT-tagged KRAS constructs, cells were seeded at 25 000 cells per well in culture medium into white bottom opaque 96-well plates (Perkin Elmer cat no. 5680). Plates were incubated at 37 °C, 5% CO2 in a humidified incubator over night to allow the cells to adhere. Test compounds (10 mM stock in DMSO) were added at logarithmic dose series using the HP Digital Dispenser D300 (Tecan), normalizing for added DMSO. […] Following incubation, 100 µL per well Promega Nano-Glo HiBiT lytic detection reagent mix (Promega Nano-Glo HiBiT Lytic Detection System #N3050), prepared according to the manufacturer´s instructions in the kit, were added. To allow for adequate cell lysis, plates were incubated on an orbital shaker for 15 min. and further incubated 30 min. at room temperature. Upon completion of cell lysis, luminescence was measured using an Envision plate reader using the Ultrasensitive Luminescence Protocol for 96-well plates. Luminescence levels were normalized by the values obtained with DMSO-treated samples and plotted as percent of DMSO control. DC50 values were computed using a three parametric logistic model. Dmax values represent the maximal extent of degradation observed and are stated as percent of control treatments.

SMILES | IC50 [1] [nM] | IC50 [2] [nM] | IC50 [3] [nM] | Kd [4] [nM] | Kd [5] [nM] | Kd [6] [nM] | DC50 ([7]; read-out: DC50 24 h GP5d HiBiT) [nM] | kon ([6]; read-out: SPR VCB kon [1/(M s)]) [M⁻¹ s⁻¹] | DC50 ([7]; 10% human serum, read-out: DC50 24 h GP5d HiBiT 10% human serum) [nM] | DC50 ([7]; 10% mouse serum, read-out: DC50 24 h GP5d HiBiT 10% mouse serum) [nM]
Cc1ncsc1-c1ccc(CNC(=O)C2CC(O)CN2C(=O)C(c2cc(OCCCCN3CCCN(c4nccc(-c5noc(C6(C)CCCc7sc(N)c(C#N)c76)n5)n4)C(C)C3)no2)C(C)C)cc1 (stereo not drawn) [compound 5] | 245 | 138 | 429 |  |  |  |  |  |  | 
Cc1ncsc1-c1ccc(CNC(=O)[C@@H]2C[C@@H](O)CN2C(=O)[C@@H](NC(=O)COCCCN2CCCN(c3nccc(-c4noc([C@@]5(C)CCCc6sc(N)c(C#N)c65)n4)n3)[C@@H](C)C2)C(C)(C)C)cc1 [compound 2] |  |  |  | 136 ± 1 | 240 ± 31 | 737 ± 388 | 494 |  |  | 
Cc1ncsc1-c1ccc(CNC(=O)[C@@H]2C[C@@H](O)CN2C(=O)[C@@H](NC(=O)CCCCCN2CCCN(c3nccc(-c4noc([C@@]5(C)CCCc6sc(N)c(C#N)c65)n4)n3)[C@@H](C)C2)C(C)(C)C)cc1 [compound 3] | 129 | 248 | 205 | 9 ± 1 | 13 ± 2 |  | 68.1 | 136000 |  | 

More lines, now with the values ahead:

IC50 [1] [nM] | IC50 [2] [nM] | IC50 [3] [nM] | Kd [4] [nM] | Kd [5] [nM] | Kd [6] [nM] | DC50 ([7]; read-out: DC50 24 h GP5d HiBiT) [nM] | kon ([6]; read-out: SPR VCB kon [1/(M s)]) [M⁻¹ s⁻¹] | DC50 ([7]; 10% human serum, read-out: DC50 24 h GP5d HiBiT 10% human serum) [nM] | DC50 ([7]; 10% mouse serum, read-out: DC50 24 h GP5d HiBiT 10% mouse serum) [nM] | SMILES
 |  |  |  |  | 11.1 ± 0.3 | 0.7 |  |  |  | Cc1ncsc1-c1ccc([C@H](CO)NC(=O)[C@@H]2C[C@@H](O)CN2C(=O)[C@H](C(C)C)n2cc(OCCCCN3CCCN(c4nccc(-c5noc([C@@]6(C)CCCc7sc(N)c(C#N)c76)n5)n4)[C@@H](C)C3)nn2)cc1 [compound 7, ACBI3]
3.3 | 11.4 | 6.2 | 8 | 11 ± 1 |  | 1.4 |  | 1.9 | 33.1 | Cc1ncsc1-c1ccc(CNC(=O)[C@@H]2C[C@@H](O)CN2C(=O)[C@@H](c2cc(OCCCCN3CCCN(c4nccc(-c5noc([C@@]6(C)CCCc7sc(N)c(C#N)c76)n5)n4)[C@@H](C)C3)no2)C(C)C)cc1 [compound 4]
